For this assay, the target named is hTRPV3 (Homo sapiens (Human), UniProt Q8NET8). Nature of the assay: Whole-cell patch clamp, hTRPV3 Phase 1 / Phase 2 currents. It counts as cell-based. Summed up:
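Whole-cell recordings on induced TRPV3 cells replated on coverslips, held at −40 mV with 400 ms ramps from −120 to +100 mV every 5 s; currents read at −80 and +80 mV. Ringer's external solution; current activated by heating to ≥28 °C or 20 μM 2-APB.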
For orientation: Patch clamp records ionic current or voltage across a cell membrane.

Setting [1] is: Phase 1 current, inward, whole-cell patch clamp, read-out: hTRPV3 Patch P1 Inwd.
Where [2] appears, read: Phase 1 current, read-out: hTRPV3 (nM) (Phase 1).
The mark [3] stands for this setting: Phase 2 current, inward, whole-cell patch clamp, read-out: hTRPV3 Patch P2 Inwd.
[4] abbreviates: Phase 2 current, read-out: hTRPV3 (nM) (Phase 2).

Molecules are shown by their SMILES. Read-outs that look alike come from different tables or passages of the source.

Sequence of hTRPV3 (Q8NET8 whole entry): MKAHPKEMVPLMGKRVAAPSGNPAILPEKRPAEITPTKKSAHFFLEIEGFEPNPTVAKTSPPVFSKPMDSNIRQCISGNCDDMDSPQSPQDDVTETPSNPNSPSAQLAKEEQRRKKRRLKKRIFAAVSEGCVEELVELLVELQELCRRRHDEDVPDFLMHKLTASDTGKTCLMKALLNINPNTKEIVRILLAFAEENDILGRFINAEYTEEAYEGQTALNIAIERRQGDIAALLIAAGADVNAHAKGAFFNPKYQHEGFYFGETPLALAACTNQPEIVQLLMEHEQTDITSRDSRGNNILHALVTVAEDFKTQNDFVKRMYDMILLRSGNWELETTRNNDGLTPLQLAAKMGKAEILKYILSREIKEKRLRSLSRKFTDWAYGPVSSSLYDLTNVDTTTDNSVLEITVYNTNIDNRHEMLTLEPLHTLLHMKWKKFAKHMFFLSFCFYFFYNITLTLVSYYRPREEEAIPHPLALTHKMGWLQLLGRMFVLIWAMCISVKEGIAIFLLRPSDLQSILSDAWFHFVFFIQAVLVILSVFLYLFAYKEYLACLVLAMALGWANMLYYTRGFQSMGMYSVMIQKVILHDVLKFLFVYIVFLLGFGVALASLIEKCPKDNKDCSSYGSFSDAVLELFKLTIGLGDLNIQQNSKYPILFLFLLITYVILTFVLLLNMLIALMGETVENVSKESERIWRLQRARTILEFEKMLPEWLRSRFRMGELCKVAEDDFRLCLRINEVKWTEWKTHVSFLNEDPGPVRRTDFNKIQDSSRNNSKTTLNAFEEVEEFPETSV

In the case of `CCc1ccccc1Oc1ccc(N2CC[C@H](Oc3ccc(C)cn3)C2)c(CO)n1` [Compound 1-214, (S)-(6-(2-ethylphenoxy)-3-(3-(5-methylpyridin-2-yloxy)pyrrolidin-1-yl)pyridin-2-yl)methanol], where the note is “Phase 1 current”, the “hTRPV3 (nM) (Phase 1)” value is listed as “Incomplete Block (Phase 1)”.
`Cc1ccc(O[C@H]2CCN(c3ccc(-c4ccccc4)nc3CCO)C2)nc1` [Compound 1-215]: the IC50 was above 1000 nM under setting [1] and 1000 nM under setting [2].
The like results for `Cc1ccccc1-c1ccc(N2CC[C@H](Oc3ncccc3F)C2)c(CO)n1` [Compound 1-216, (S)-(3-(3-(3-fluoropyridin-2-yloxy)pyrrolidin-1-yl)-6-o-tolylpyridin-2-yl)methanol] were, in that order, above 1000 nM and 1160 nM.
Turning to `N#Cc1ccccc1-c1ccc(N2CC[C@H](Oc3ncccc3F)C2)c(CO)n1` [Compound 1-217, (S)-2-(5-(3-(3-fluoropyridin-2-yloxy)pyrrolidin-1-yl)-6-(hydroxymethyl)pyridin-2-yl)benzonitrile], the IC50 was above 1000 nM under setting [1] and 3900 nM under setting [2].
On the same counts, the results for `CCc1ccccc1-c1ccc(N2CC[C@H](Oc3ccc(C)cn3)C2)c(CCO)n1` [Compound 1-218, (S)-2-(6-(2-ethylphenyl)-3-(3-(5-methylpyridin-2-yloxy)pyrrolidin-1-yl)pyridin-2-yl)ethanol] are 100 to 1000 nM and 614 nM.
Consider `Cc1cccc(Oc2ccc(N3CC[C@H](Oc4ncccc4Cl)C3)c(CO)c2)c1` [Compound 1-242, (S)-(2-(3-(3-chloropyridin-2-yloxy)pyrrolidin-1-yl)-5-(m-tolyloxy)phenyl)methanol], for which the IC50 is 10 to 100 nM under setting [1] and 37 nM under setting [2].
Consider `Cc1ccc(O[C@H]2CCN(c3ccc(-c4ccccn4)nc3CO)C2)nc1` [Compound 1-244, (S)-(5-(3-(5-methylpyridin-2-yloxy)pyrrolidin-1-yl)-2, 2′-bipyridin-6-yl)methanol], for which the IC50 under setting [1] is above 1000 nM and the IC50 under setting [2] is 4650 nM.
The like results for `OCc1nc(-c2ncccn2)ccc1N1CC[C@H](Oc2ccc(C(F)(F)F)cn2)C1` [Compound 1-245, (S)-(6-(pyrimidin-2-yl)-3-(3-(5-(trifluoromethyl)pyridin-2-yloxy)pyrrolidin-1-yl)pyridin-2-yl)methanol] were, in that order, above 1000 nM and above 3200 nM.
Turning to `N#Cc1ccc(-c2ccc(N3CC[C@H](Oc4ccc(C(F)(F)F)cn4)C3)c(CO)c2)cc1` [Compound 1-252, (S)-3′-(hydroxymethyl)-4′-(3-(5-(trifluoromethyl)pyridin-2-yloxy)pyrrolidin-1-yl)biphenyl-4-carbonitrile], the IC50 runs as follows: under setting [1], 100 to 1000 nM; under setting [2], 886 nM.
`NC(=O)c1ccc(-c2ccc(N3CC[C@H](Oc4ccc(C(F)(F)F)cn4)C3)c(CO)c2)cc1` [Compound 1-253, (S)-3′-(hydroxymethyl)-4′-(3-(5-(trifluoromethyl)pyridin-2-yloxy)pyrrolidin-1-yl)biphenyl-4-carboxamide]: the IC50 reads like this: under setting [1], above 1000 nM; under setting [2], above 3200 nM.
The like results for `OCc1cc(-c2ccccn2)ccc1N1CC[C@H](Oc2ccc(C(F)(F)F)cn2)C1` [Compound 1-254, (S)-(5-(pyridin-2-yl)-2-(3-(5-(trifluoromethyl)pyridin-2-yloxy)pyrrolidin-1-yl)phenyl) methanol] were, in that order, above 1000 nM and 1290 nM.
The like results for `Cc1cccnc1-c1ccc(N2CC[C@H](Oc3ccc(C(F)(F)F)cn3)C2)c(CO)c1` [Compound 1-255, (S)-(5-(3-methylpyridin-2-yl)-2-(3-(5-(trifluoromethyl)pyridin-2-yloxy)pyrrolidin-1-yl)phenyl)methanol] were, in that order, 100 to 1000 nM and 806 nM.
The like results for `Cc1ccc(O[C@H]2CCN(c3ccc(-c4ccccc4CN(C)C(=O)OC(C)(C)C)nc3CO)C2)nc1` [Compound 1-258, (S)-tert-butyl 2-(6-(hydroxymethyl)-5-(3-(5-methylpyridin-2-yloxy)pyrrolidin-1-yl)pyridin-2-yl)benzyl (methyl)carbamate] were, in that order, 100 to 1000 nM and 276 nM.
As for `Cc1ccc(O[C@H]2CCN(c3ccc(-c4ncccc4C)cc3CO)C2)nc1` [Compound 1-259, (S)-(5-(3-methylpyridin-2-yl)-2-(3-(5-methylpyridin-2-yloxy)pyrrolidin-1-yl)phenyl) methanol], the IC50 is above 1000 nM under setting [1], 3050 nM under setting [2], above 1000 nM under setting [3] and 2260 nM under setting [4].
With `CCc1ccccc1C(O)c1ccc(N2CC[C@H](Oc3ncccc3Cl)C2)c(CO)c1` (stereo partly drawn) [Compound 1-260, (4-((S)-3-(3-chloropyridin-2-yloxy)pyrrolidin-1-yl)-3-(hydroxymethyl)phenyl)(2-ethylphenyl)methanol], the IC50 under setting [1] was above 1000 nM and the IC50 under setting [2] amounted to 3150 nM.
The like results for `OCc1ccc(-c2ccc(N3CC[C@H](Oc4ccc(C(F)(F)F)cn4)C3)c(CO)c2)cc1` [Compound 1-261, (S)-(4-(3-(5-(trifluoromethyl)pyridin-2-yloxy)pyrrolidin-1-yl)biphenyl-3,4′-diyl)dimethanol] were, in that order, 100 to 1000 nM and 604 nM.
The like results for `O=C(c1ccc(N2CC[C@H](Oc3ncccc3Cl)C2)c(CO)c1)c1ccccc1Cl` [Compound 1-263, (S)-(2-chlorophenyl)(4-(3-(3-chloropyridin-2-yloxy)pyrrolidin-1-yl)-3-(hydroxymethyl)phenyl)methanone] were, in that order, 100 to 1000 nM and 444 nM.
Turning to `O=C(c1ccc(N2CC[C@H](Oc3ncccc3F)C2)c(CO)c1)c1ccccc1Cl` [Compound 1-265, (S)-(2-chlorophenyl)(4-(3-(3-fluoropyridin-2-yloxy)pyrrolidin-1-yl)-3-(hydroxymethyl)phenyl)methanone], the IC50 is above 1000 nM under setting [1] and 1780 nM under setting [2].
Take `CCCc1ccccc1Oc1ccc(N2CC[C@H](Oc3ncccc3Cl)C2)c(CO)c1` [Compound 1-266, (S)-(2-(3-(3-chloropyridin-2-yloxy)pyrrolidin-1-yl)-5-(2-propylphenoxy)phenyl)methanol]: the IC50 runs as follows: under setting [1], below 10 nM; under setting [2], 2.65 nM.
On the same counts, the results for `CC(C)(C)OC(=O)NCc1ccc(-c2ccc(N3CC[C@H](Oc4ccc(C(F)(F)F)cn4)C3)c(CO)c2)cc1` [Compound 1-269, (S)-tert-butyl (3′-(hydroxymethyl)-4′-(3-(5-(trifluoromethyl)pyridin-2-yloxy)pyrrolidin-1-yl)biphenyl-4-yl)methylcarbamate] are above 1000 nM and above 3200 nM.
For the molecule `CC(C)c1ccccc1Oc1ccc(N2CC[C@H](Oc3ncccc3Cl)C2)c(CO)c1` [Compound 1-271, (S)-(2-(3-(3-chloropyridin-2-yloxy)pyrrolidin-1-yl)-5-(2-isopropylphenoxy)phenyl)methanol], the IC50 was below 10 nM under setting [1] and 2.01 nM under setting [2].
On to `OCc1cc(C2CCOCC2)ccc1N1CC[C@H](Oc2ccc(C(F)(F)F)cn2)C1` [Compound 1-276, (S)-(5-(tetrahydro-2H-pyran-4-yl)-2-(3-(5-(trifluoromethyl)pyridin-2-yloxy)pyrrolidin-1-yl)phenyl)methanol], for which the IC50 by setting is: under setting [1], above 1000 nM; under setting [2], above 3200 nM.
The like results for `OCc1cc(C(O)c2ccc(F)cc2)ccc1N1CC[C@H](Oc2ncccc2Cl)C1` (stereo partly drawn) [Compound 1-278, (4-((S)-3-(3-chloropyridin-2-yloxy)pyrrolidin-1-yl)-3-(hydroxymethyl)phenyl)(4-fluorophenyl)methanol] were, in that order, 100 to 1000 nM and 254 nM.
On the same counts, the results for `OCc1cc(C2=CCOCC2)ccc1N1CC[C@H](Oc2ccc(C(F)(F)F)cn2)C1` [Compound 1-280, (S)-(5-(3,6-dihydro-2H-pyran-4-yl)-2-(3-(5-(trifluoromethyl)pyridin-2-yloxy)pyrrolidin-1-yl)phenyl)methanol] are above 1000 nM and around 3600 nM.
`Cc1cccc(C(O)c2ccc(N3CC[C@H](Oc4ncccc4Cl)C3)c(CO)c2)c1` (stereo partly drawn) [Compound 1-281, (4-((S)-3-(3-chloropyridin-2-yloxy)pyrrolidin-1-yl)-3-(hydroxymethyl)phenyl)(m-tolyl)methanol]: the IC50 by setting is: under setting [1], above 1000 nM; under setting [2], 1100 nM.
Take `OCc1cc(Oc2ccc(Cl)cc2)ccc1N1CC[C@H](Oc2ccccn2)C1` [Compound 1-283]: the IC50 was 100 to 1000 nM under setting [1] and 283 nM under setting [2].
As for `OCc1cc(Br)ccc1N1C[C@@H](O)[C@H](Oc2ccc(C(F)(F)F)cn2)C1` [Compound 1-284], the IC50 is above 1000 nM under setting [1] and 1630 nM under setting [2].
As for `OCc1cc(Oc2ccc(Cl)cc2)ccc1N1C[C@@H](O)[C@H](Oc2ccc(C(F)(F)F)cn2)C1` [Compound 1-285], the IC50 was above 1000 nM under setting [1], above 3200 nM under setting [2], above 1000 nM under setting [3] and around 4900 nM under setting [4].
As to `COCc1ccc(C(=O)c2ccc(N3CC[C@H](Oc4ncccc4Cl)C3)c(CO)c2)cc1` [Compound 1-286], the IC50 by setting is: under setting [1], 100 to 1000 nM; under setting [2], 607 nM.
The like results for `Cc1ccc(C(O)c2ccc(N3CC[C@H](Oc4ncccc4Cl)C3)c(CO)c2)cc1` (stereo partly drawn) [Compound 1-287, (4-((S)-3-(3-chloropyridin-2-yloxy)pyrrolidin-1-yl)-3-(hydroxymethyl)phenyl)(p-tolyl)methanol] were, in that order, 100 to 1000 nM and 674 nM.
Turning to `O=C(c1ccc(Cl)cc1)c1ccc(N2CC[C@H](Oc3ncccc3Cl)C2)c(CO)c1` [Compound 1-288, (S)-(4-chlorophenyl)(4-(3-(3-chloropyridin-2-yloxy)pyrrolidin-1-yl)-3-(hydroxymethyl)phenyl)methanone], the IC50 under setting [1] fell in the range of 10 to 100 nM.
